Results on five compounds are retold here after patent US20080167444A1, “Abc Transporter Inhibitor” (priority 2004, published 2008).

Several values for one entry are separate records, joined by “and”; a condition that tells them apart may be missing. Equal entries are not always repeated.

Data set [1] concerns the target T1, PDR5 protein (Saccharomyces cerevisiae, UniProt P33302).
T1 construct: expressed in transfected cells; host or cells: Saccharomyces cerevisiae W303 (MAT a Δsyr/erg3::HIS3 Δpdr5::LEU2 Δsnq2::HIS3)
Description: Rhodamine 6G accumulation in yeast with overexpressed PDR5 (fluorescence microscope). Type of data set: cell-based. The settings on record: drug at final concentration 25 μg/mL, 2 hours, then rhodamine 6G 30 minutes. The protocol: (§1) The above-mentioned strain with overexpressed PDR5 and the above-mentioned host yeast were separately subjected to shaking culture at 30° C. for 12 hours in 4 mL of the minimum medium. Then a quantity of yeast corresponding to 1.0×10^6 cells was inoculated to 4 mL of the minimum medium. Enniatin B, B1, D, enniatin mixture, or FK-506 was added to the final concentration of 25 μg/mL, and after shaking culture at 30° C. for 2 hours, 15 μL of rhodamine 6G (1 mg/mL) was added followed by culture under the same conditions for 30 minutes. After culture, the culture was washed twice with 2% glucose solution in PBS (phosphate-buffered saline) and the fluorescence in yeast cells was observed under a fluorescence microscope (Nicon ECLIPSE E400, using G-2A filter).

The target of data set [2] is T1, PDR5 protein. Description: Growth inhibition of yeast with overexpressed PDR5 in the presence of cycloheximide or cerulenin (absorbance at 660 nm). The format is cell-based. The conditions noted are these: for inhibition of growth of the yeast with overexpressed PDR5: test drug at 5 μg/mL, cycloheximide or cerulenin present, static culture 30° C. 24 hours; for IC50: IC50 (concentration for 50% growth-inhibition), IC50 of cycloheximide or cerulenin, without or with addition of 5 μg/mL enniatin mixture or FK-506. The method, then: (§2) Yeast with overexpressed PDR5 by transformation of the host yeast (Saccharomyces cerevisiae W303 (MAT a Δsyr/erg3::HIS3 Δpdr5::LEU2 Δsnq2::HIS3)) with the PDR5 expression vector and the host yeast were inoculated separately in 4 mL each of the minimum medium followed by shaking culture at 30° C. for 12 hours. To a 96-well microtiter plate to which cycloheximide or cerulenin of various concentrations had been added, was added purified enniatin B, B1, D, or enniatin mixture of various concentrations, followed by inoculation of the above-mentioned yeast. The volume per well was adjusted to 200 μL by addition of the minimum medium. After static culture at 30° C. for 24 hours, the extent of growth of yeast was determined for evaluation of the growth-inhibiting activity of the test drug against the yeast with overexpressed PDR5 and against the host yeast. The extent of growth of yeast was determined by measurement of absorbance at 660 nm using a microtiter plate reader (MTP-500; CORONA). The growth-inhibiting activity against the yeast with overexpressed PDR5 and against the host yeast was also determined for immunosuppressor FK-506, the positive control, which is known to inhibit yeast PDR5 protein and human MDR1 protein (P-glycoprotein).

For the next data set, the system named is PDR5 gene. Description: PDR5 transcription activity, β-galactosidase (lacZ) reporter downstream of Pdr5 promoter. The format is cell-based, yeast. The conditions noted are these: drug at final concentration 25 μg/mL, 8 hours; compared with no addition. The method, then: The effect of enniatin on expression of PDR5 gene was analyzed based on measurement of the PDR5 transcription activity using β-galactosidase gene as the reporter gene. Yeast, where had been introduced a recombinant plasmid obtained by fusion of β-galactosidase gene (lacZ) in the downstream of Pdr5 promoter, was subjected to shaking culture at 30° C. for 8 hours in 4 mL of YEPD medium, and a quantity of yeast corresponding to 1.0×10^6 cells was inoculated in 4 mL of the medium. At the same time, enniatin B, B1, D, enniatin mixture, or FK-506 was added to the final concentration of 25 μg/mL. After shaking culture at 30° C. for 8 hours, 1.0×10^7 yeast cells were collected. The cells were then suspended in 1 mL of Z buffer solution (60 mM disodium hydrogen phosphate, 40 mM sodium dihydrogen phosphate, 10 mM potassium chloride, 1 mM magnesium sulfate, 50 mM […], pH 7.0). The cell suspension was treated with 45 μL of chloroform and 30 μL of 0.1% sodium dodecyl sulfate at 30° C. for 5 minutes. The suspension was then treated with 200 μL of o-NPG (o-nitrophenyl-β-D-galactopyranoside) of 4 mg/mL at 30° C. for 10 minutes. After reaction was stopped by addition of 500 μL of 1 M sodium carbonate, absorbance at 420 nm was measured to determine the activity of β-galactosidase. The activity of β-galactosidase was calculated using a unit=1000×A420/10 (reaction time). […] Thus it could be confirmed that inhibition of PDR5 function by enniatin B, B1, D, enniatin mixture, or FK-506 is not ascribable to the inhibition of transcription of PDR5 gene.

For data set [3], the system named is PDR5 protein. Description: Western blotting of PDR5 protein (quantity and stability). Type of data set: cell-based, yeast. The settings on record: after addition of the drug. The text has this: The effects of enniatin B, B1, D, and enniatin mixture on the quantity of PDR5 protein as the translation product and on the stability of PDR5 protein were investigated by Western blotting of PDR5 protein. After addition of enniatin B, B1, D, or enniatin mixture, quantitative change of PDR5 protein was not observed, which confirmed that apparent inhibition of the function of PDR5 gene product is ascribable neither to inhibition of translation of PDR5 protein nor to reduced stability of the protein through acceleration of decomposition of PDR5 protein.

In data set [4] the test system is host yeast (Saccharomyces cerevisiae W303 (MAT a Δsyr/erg3::HIS3 Δpdr5::LEU2 Δsnq2::HIS3)). Description: Growth inhibition of the host yeast (PDR5 and SNQ2 deleted). The settings on record: test drug elevated to 5 μg/mL; static culture 30° C. 24 hours. The format is cell-based. The protocol: as §2
In the next data set the test system is PDR5-deleted host yeast. Description: Rhodamine 6G accumulation in PDR5-deleted host yeast (fluorescence microscope). Type of data set: cell-based, Saccharomyces cerevisiae. The settings on record: drug at final concentration 25 μg/mL; compared with no addition of the drug. The protocol:
as §1

T1 sequence (P33302 whole entry): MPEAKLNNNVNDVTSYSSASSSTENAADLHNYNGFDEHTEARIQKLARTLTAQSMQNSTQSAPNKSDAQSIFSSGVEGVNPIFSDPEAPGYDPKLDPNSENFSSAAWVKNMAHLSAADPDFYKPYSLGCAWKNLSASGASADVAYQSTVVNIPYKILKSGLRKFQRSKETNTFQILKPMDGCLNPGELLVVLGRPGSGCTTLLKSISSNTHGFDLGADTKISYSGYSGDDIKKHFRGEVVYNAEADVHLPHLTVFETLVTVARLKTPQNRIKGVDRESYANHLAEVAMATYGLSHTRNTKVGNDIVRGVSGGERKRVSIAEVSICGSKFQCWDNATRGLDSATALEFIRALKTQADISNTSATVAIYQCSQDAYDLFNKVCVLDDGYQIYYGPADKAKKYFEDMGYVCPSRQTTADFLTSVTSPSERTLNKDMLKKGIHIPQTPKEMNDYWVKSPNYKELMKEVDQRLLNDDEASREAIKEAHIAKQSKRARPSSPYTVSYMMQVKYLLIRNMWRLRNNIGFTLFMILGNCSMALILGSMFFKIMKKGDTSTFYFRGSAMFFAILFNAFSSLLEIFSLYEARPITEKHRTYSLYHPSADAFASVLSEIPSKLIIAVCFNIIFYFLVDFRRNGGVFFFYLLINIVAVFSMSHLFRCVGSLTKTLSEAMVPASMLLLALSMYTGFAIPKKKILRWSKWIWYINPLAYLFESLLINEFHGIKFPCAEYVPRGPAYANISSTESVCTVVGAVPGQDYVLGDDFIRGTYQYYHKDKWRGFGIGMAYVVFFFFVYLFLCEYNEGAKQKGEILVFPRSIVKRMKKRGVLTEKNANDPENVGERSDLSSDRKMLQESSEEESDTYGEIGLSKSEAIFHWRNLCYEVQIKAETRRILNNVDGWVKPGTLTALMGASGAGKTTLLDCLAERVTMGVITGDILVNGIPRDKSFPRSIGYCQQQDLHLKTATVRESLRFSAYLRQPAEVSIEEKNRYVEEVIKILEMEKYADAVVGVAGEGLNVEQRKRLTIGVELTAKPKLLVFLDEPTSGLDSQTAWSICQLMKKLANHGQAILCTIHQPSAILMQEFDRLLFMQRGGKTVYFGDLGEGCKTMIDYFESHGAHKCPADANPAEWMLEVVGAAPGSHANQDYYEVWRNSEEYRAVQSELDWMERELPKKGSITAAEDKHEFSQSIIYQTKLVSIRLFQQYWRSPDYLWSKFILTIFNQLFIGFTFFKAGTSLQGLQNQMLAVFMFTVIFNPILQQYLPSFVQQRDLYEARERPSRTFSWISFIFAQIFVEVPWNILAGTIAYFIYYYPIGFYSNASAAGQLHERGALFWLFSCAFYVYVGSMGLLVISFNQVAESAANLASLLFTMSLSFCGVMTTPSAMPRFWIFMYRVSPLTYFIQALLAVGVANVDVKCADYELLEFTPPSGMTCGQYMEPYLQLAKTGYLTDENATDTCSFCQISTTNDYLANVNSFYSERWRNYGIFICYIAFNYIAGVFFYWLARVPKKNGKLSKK

Consider `CC(C)[C@H]1C(=O)O[C@H](C(C)C)C(=O)N(C)[C@@H](C(C)C)C(=O)O[C@H](C(C)C)C(=O)N(C)[C@@H](C(C)C)C(=O)O[C@H](C(C)C)C(=O)N1C` [enniatin B, Enniatin B], for which, on PDR5 protein [1], the “rhodamine 6G accumulation in yeast with overexpressed PDR5” value (“rhodamine 6G accumulation in yeast” for short) is “accumulated rhodamine 6G”. Further, on PDR5 protein [2], the “inhibition of growth of the yeast with overexpressed PDR5” value (shortened to “inhibition of growth of the yeast”) was “completely”. For the same compound, in the data set with PDR5 gene, the “activity of β-galactosidase (PDR5 transcription activity)” value (shortened to “activity of β-galactosidase”) is on record as “not different from that without addition of the drug”. The “quantitative change of PDR5 protein (Western blotting)” value (“quantitative change of PDR5 protein” for short) in the data set on PDR5 protein [3] is given as “not observed”. In addition, the “inhibition of growth of the host yeast (cytotoxicity)” value (from here on “inhibition of growth … (cytotoxicity)”) in data set [4] is reported as “not observed”. Besides, the “rhodamine 6G accumulation in PDR5-deleted host yeast” value with PDR5-deleted host yeast is listed as “rhodamine 6G was accumulated in yeast cells”.
As for `CC[C@H](C)[C@H]1C(=O)O[C@H](C(C)C)C(=O)N(C)[C@@H](C(C)C)C(=O)O[C@H](C(C)C)C(=O)N(C)[C@@H](C(C)C)C(=O)O[C@H](C(C)C)C(=O)N1C` [enniatin B1, Enniatin B1], at PDR5 protein [1], the “rhodamine 6G accumulation in yeast” value was “accumulated rhodamine 6G”. Moreover, at PDR5 protein [2], the “inhibition of growth of the yeast” value is “completely”. The “activity of β-galactosidase” value in the data set on PDR5 gene was “not different from that without addition of the drug”. In the data set with PDR5 protein [3], the “quantitative change of PDR5 protein” value was “not observed”. The “inhibition of growth … (cytotoxicity)” value in data set [4] is listed as “not observed”. For the same compound, in the data set with PDR5-deleted host yeast, the “rhodamine 6G accumulation in PDR5-deleted host yeast” value is “rhodamine 6G was accumulated in yeast cells”.
Turning to `C/C=C/C/C=C/CCC(=O)[C@H]1O[C@H]1C(N)=O` [Cerulenin], on PDR5 protein [2], the IC50 is 1500 nM and 1570 nM.
In the case of `CC(C)CC1C(=O)OC(C(C)C)C(=O)N(C)C(C(C)C)C(=O)OC(C(C)C)C(=O)N(C)C(C(C)C)C(=O)OC(C(C)C)C(=O)N1C` (centres unmarked) [enniatin D, Enniatin D], the “rhodamine 6G accumulation in yeast” value on PDR5 protein [1] is listed as “accumulated rhodamine 6G”. At PDR5 protein [2], the “inhibition of growth of the yeast” value is “completely”. For the same compound, in the data set on PDR5 gene, the “activity of β-galactosidase” value is “not different from that without addition of the drug”. Further, the “quantitative change of PDR5 protein” value in the data set with PDR5 protein [3] is “not observed”. Besides, in data set [4], the “inhibition of growth … (cytotoxicity)” value is on record as “not observed”. The “rhodamine 6G accumulation in PDR5-deleted host yeast” value with PDR5-deleted host yeast is “rhodamine 6G was accumulated in yeast cells”.
Consider `C[C@@H]1C[C@@H]([C@H](O)CC2CC(=O)NC(=O)C2)C(=O)[C@@H](C)C1` [Cycloheximide], for which the IC50 at PDR5 protein [2] was 462 nM and 434 nM.
